Measured values taken from patent publication US8134015B2, “Compound inhibiting in vivo phosphorous transport and medicine containing the same” (Kyowa Hakko Kirin Co., Ltd., priority 2003, dated 2012).
pIC50: −log10 of the molar value.

Each compound was assayed against T1, rat NaPi-2b (Rattus norvegicus, UniProt Q9JJ09) (assay: Sodium-dependent phosphate uptake of Xenopus oocytes which expressed NaPi-2b (32P)). Conditions: Xenopus oocytes expressing rat NaPi-2b, 32P radioactive phosphorus; read-out: IC50 (phosphate uptake inhibitory activity).
T1 construct: expressed in transfected cells; host or cells: Xenopus oocytes injected with cRNA
T1 sequence (Q9JJ09 1-695): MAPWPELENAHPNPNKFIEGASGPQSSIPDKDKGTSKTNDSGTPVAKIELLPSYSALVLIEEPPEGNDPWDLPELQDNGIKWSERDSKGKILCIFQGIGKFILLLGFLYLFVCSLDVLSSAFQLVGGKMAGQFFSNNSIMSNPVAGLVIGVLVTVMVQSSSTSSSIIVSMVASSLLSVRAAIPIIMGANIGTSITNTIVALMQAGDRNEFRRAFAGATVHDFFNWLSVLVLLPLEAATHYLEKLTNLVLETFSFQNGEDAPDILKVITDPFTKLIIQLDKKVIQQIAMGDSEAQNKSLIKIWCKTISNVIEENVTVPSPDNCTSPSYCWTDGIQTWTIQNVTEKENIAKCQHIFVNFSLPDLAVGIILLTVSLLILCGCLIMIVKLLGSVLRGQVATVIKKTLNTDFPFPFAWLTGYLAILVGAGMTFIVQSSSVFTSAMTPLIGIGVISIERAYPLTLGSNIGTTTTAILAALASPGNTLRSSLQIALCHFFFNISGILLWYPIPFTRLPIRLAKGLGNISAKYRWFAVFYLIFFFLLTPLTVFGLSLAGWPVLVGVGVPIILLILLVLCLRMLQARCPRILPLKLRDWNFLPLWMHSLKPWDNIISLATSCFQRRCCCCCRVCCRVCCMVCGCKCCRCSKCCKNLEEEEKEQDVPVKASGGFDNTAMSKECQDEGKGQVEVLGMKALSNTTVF
Type: cell-based
Summary of the method: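 Steps: rat NaPi-2b cDNA cloned from small intestine; cRNA made and injected into oocytes; 2-day expression; 32P phosphate uptake with compound; % inhibition at 300/100 μM taken from one curve.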

Question: With `COc1ccc(/C=N/NC(=O)c2cc(Cl)ccc2NC(=O)c2cccc(CSCC(O)CO)c2)cc1` (stereo not shown) [Compound 1011, N-[4-Chloro-2-(4-methoxy-benzylidene-hydrazinocarbonyl)-phenyl]-3-(2,3-dihydroxy-propylsulfanylmethyl)-benzamide] as the compound, how does the pIC50 read?
Answer: The pIC50 was 5.89.

Question: With `O=C(Nc1ccc(Cl)cc1C(=O)N/N=C/c1ccc(OC(F)(F)F)cc1)c1cccc(CSCC(O)CO)c1` (stereo not shown) [Compound 1012, N-[4-Chloro-2-(4-trifluoromethoxy-benzylidene-hydrazinocarbonyl)-phenyl]-3-(2,3-dihydroxy-propylsulfanylmethyl)-benzamide] as the compound, how does the pIC50 read?
Answer: The pIC50 was 5.72.

Question: How did the pIC50 turn out when `COCCOc1cc(NC(=O)c2cccc(CSCC(O)CO)c2)c(C(=O)N/N=C/c2cccc(F)c2)cc1OCCOC` (stereo not shown) [Compound 1013, 3-(2,3-Dihydroxy-propylsulfanylmethyl)-N-[2-(3-fluoro-benzylidene-hydrazinocarbonyl)-4,5-bis-(2-methoxy-ethoxy)-phenyl]-benzamide] was run?
Answer: The pIC50 was 5.05.

Question: How did the pIC50 turn out when `COCCOc1cc(NC(=O)c2cccc(CSCC(O)CO)c2)c(C(=O)N/N=C/c2ccc(C)c(C)c2)cc1OCCOC` (stereo not shown) [Compound 1015, 3-(2,3-Dihydroxy-propylsulfanylmethyl)-N-[2-(3,4-dimethyl-benzylidene-hydrazinocarbonyl)-4,5-bis-(2-methoxy-ethoxy)-phenyl]-benzamide] was run?
Answer: The pIC50 was 4.96.

Question: `COCCOc1cc(NC(=O)c2cccc(CSCC(O)CO)c2)c(C(=O)N/N=C/c2ccc(Cl)c(C(F)(F)F)c2)cc1OCCOC` (stereo not shown) [Compound 1016, N-[2-(4-Chloro-3-trifluoromethyl-benzylidene-hydrazinocarbonyl)-4,5-bis-(2-methoxy-ethoxy)-phenyl]-3-(2,3-dihydroxy-propylsulfanylmethyl)-benzamide] was tested. Which pIC50 did it give?
Answer: Its pIC50 is 5.03.

Question: How did the pIC50 turn out when `COc1ccc(NC(=O)c2cccc(CSCC(O)CO)c2)c(C(=O)N/N=C/c2cccc(F)c2)c1` (stereo not shown) [Compound 1017, 3-(2,3-Dihydroxy-propylsulfanylmethyl)-N-[2-(3-fluoro-benzylidene-hydrazinocarbonyl)-4-methoxy-phenyl]-benzamide] was run?
Answer: Its pIC50 is 6.06.

Question: `COc1ccc(NC(=O)c2cccc(CSCC(O)CO)c2)c(C(=O)N/N=C/c2ccc(C)cc2)c1` (stereo not shown) [Compound 1018, 3-(2,3-Dihydroxy-propylsulfanylmethyl)-N-[4-methoxy-2-(4-methyl-benzylidene-hydrazinocarbonyl)-phenyl]-benzamide] was tested. Which pIC50 did it give?
Answer: Its pIC50 is 6.04.

Question: With `COc1ccc(NC(=O)c2cccc(CSCC(O)CO)c2)c(C(=O)N/N=C/c2ccc(C)c(C)c2)c1` (stereo not shown) [Compound 1019, 3-(2,3-Dihydroxy-propylsulfanylmethyl)-N-[2-(3,4-dimethyl-benzylidene-hydrazinocarbonyl)-4-methoxy-phenyl]-benzamide] as the compound, how does the pIC50 read?
Answer: The pIC50 was 6.39.

Question: With `COc1ccc(/C=N/NC(=O)c2cc(OC)ccc2NC(=O)c2cccc(CSCC(O)CO)c2)cc1` (stereo not shown) [Compound 1021, 3-(2,3-Dihydroxy-propylsulfanylmethyl)-N-[4-methoxy-2-(4-methoxy-benzylidene-hydrazinocarbonyl)-phenyl]-benzamide] as the compound, how does the pIC50 read?
Answer: Its pIC50 is 5.25.

Question: How did the pIC50 turn out when `CCN(CC)CCN(C)Cc1cccc(C(=O)Nc2ccc(OC)cc2C(=O)N/N=C/c2cccc(F)c2)c1` [Compound 1022, 3-{[(2-Diethylamino-ethyl)-methyl-amino]-methyl}-N-[2-(3-fluoro-benzylidene-hydrazinocarbonyl)-4-methoxy-phenyl]-benzamide] was run?
Answer: Its pIC50 is 5.49.

Question: With `CCN(CC)CCN(C)Cc1cccc(C(=O)Nc2ccc(OC)cc2C(=O)N/N=C/c2ccc(Cl)c(C(F)(F)F)c2)c1` [Compound 1023, N-[2-(4-Chloro-3-trifluoromethyl-benzylidene-hydrazinocarbonyl)-4-methoxy-phenyl]-3-{[(2-diethylamino-ethyl)-methyl-amino]-methyl}-benzamide] as the compound, how does the pIC50 read?
Answer: The pIC50 was 6.00.

Question: With `CCN(CC)CCN(C)Cc1cccc(C(=O)Nc2ccc(OC)cc2C(=O)N/N=C/c2ccc(OC)cc2)c1` [Compound 1024, 3-{[(2-Diethylamino-ethyl)-methyl-amino]-methyl}-N-[4-methoxy-2-(4-methoxy-benzylidene-hydrazinocarbonyl)-phenyl]-benzamide] as the compound, how does the pIC50 read?
Answer: The pIC50 was 5.40.

Question: How did the pIC50 turn out when `CCN(CC)CCN(C)Cc1cccc(C(=O)Nc2ccc(OCCOC)cc2C(=O)N/N=C/c2cccc(F)c2)c1` [Compound 1025, 3-{[(2-Diethylamino-ethyl)-methyl-amino]-methyl}-N-[2-(3-fluoro-benzylidene-hydrazinocarbonyl)-4-(2-methoxy-ethoxy)-phenyl]-benzamide] was run?
Answer: Its pIC50 is 5.24.

Question: With `CCN(CC)CCN(C)Cc1cccc(C(=O)Nc2ccc(OCCOC)cc2C(=O)N/N=C/c2ccc(C)cc2)c1` [Compound 1026, 3-{[(2-Diethylamino-ethyl)-methyl-amino]-methyl}-N-[4-(2-methoxy-ethoxy)-2-(4-methyl-benzylidene-hydrazinocarbonyl)-phenyl]-benzamide] as the compound, how does the pIC50 read?
Answer: Its pIC50 is 5.41.

Question: With `CCN(CC)CCN(C)Cc1cccc(C(=O)Nc2cc(OCCOC)c(OCCOC)cc2C(=O)N/N=C/c2cccc(F)c2)c1` [Compound 1028, 3-{[(2-Diethylamino-ethyl)-methyl-amino]-methyl}-N-[2-(3-fluoro-benzylidene-hydrazinocarbonyl)-4,5-bis-(2-methoxy-ethoxy)-phenyl]-benzamide] as the compound, how does the pIC50 read?
Answer: Its pIC50 is 4.54.

Question: With `CCN(CC)CCN(C)Cc1cccc(C(=O)Nc2cc(OCCOC)c(OCCOC)cc2C(=O)N/N=C/c2ccc(C)cc2)c1` [Compound 1029, N-[4,5-Bis-(2-methoxy-ethoxy)-2-(4-methyl-benzylidene-hydrazinocarbonyl)-phenyl]-3-{[(2-diethylamino-ethyl)-methyl-amino]-methyl}-benzamide] as the compound, how does the pIC50 read?
Answer: The pIC50 was 4.46.

Question: `CCN(CC)CCN(C)Cc1cccc(C(=O)Nc2cc(OCCOC)c(OCCOC)cc2C(=O)N/N=C/c2ccc(C)c(C)c2)c1` [Compound 1030, 3-{[(2-Diethylamino-ethyl)-methyl-amino]-methyl}-N-[2-(3,4-dimethyl-benzylidene-hydrazinocarbonyl)-4,5-bis-(2-methoxy-ethoxy)-phenyl]-benzamide] was tested. Which pIC50 did it give?
Answer: Its pIC50 is 4.85.

Question: With `CCN(CC)CCN(C)Cc1cccc(C(=O)Nc2ccc(OCCOCCOC)cc2C(=O)N/N=C/c2cccc(F)c2)c1` [Compound 1033, 3-{[(2-Diethylamino-ethyl)-methyl-amino]-methyl}-N-{2-(3-fluoro-benzylidene-hydrazinocarbonyl)-4-[2-(2-methoxy-ethoxy)-ethoxy]-phenyl}-benzamide] as the compound, how does the pIC50 read?
Answer: The pIC50 was 4.73.

Question: With `CCN(CC)CCN(C)Cc1cccc(C(=O)Nc2ccc(OCCOCCOC)cc2C(=O)N/N=C/c2ccc(C)cc2)c1` [Compound 1034, 3-{[(2-Diethylamino-ethyl)-methyl-amino]-methyl}-N-[4-[2-(2-methoxy-ethoxy)-ethoxy]-2-(4-methyl-benzylidene-hydrazinocarbonyl)-phenyl]-benzamide] as the compound, how does the pIC50 read?
Answer: The pIC50 was 4.76.

Question: `CCN(CC)CCN(C)Cc1cccc(C(=O)Nc2ccc(OCCOCCOC)cc2C(=O)N/N=C/c2ccc(C)c(C)c2)c1` [Compound 1035, 3-{[(2-Diethylamino-ethyl)-methyl-amino]-methyl}-N-{2-(3,4-dimethyl-benzylidene-hydrazinocarbonyl)-4-[2-(2-methoxy-ethoxy)-ethoxy]-phenyl}-benzamide] was tested. Which pIC50 did it give?
Answer: The pIC50 was 5.43.

Question: How did the pIC50 turn out when `CCN(CC)CCN(C)Cc1cccc(C(=O)Nc2ccc(OCCOCCOC)cc2C(=O)N/N=C/c2ccc(Cl)c(C(F)(F)F)c2)c1` [Compound 1036, N-{2-(4-Chloro-3-trifluoromethyl-benzylidene-hydrazinocarbonyl)-4-[2-(2-methoxy-ethoxy)-ethoxy]-phenyl}-3-{[(2-diethylamino-ethyl)-methyl-amino]-methyl}-benzamide] was run?
Answer: The pIC50 was 5.82.

Question: `CCN(CC)CCN(C)Cc1cccc(C(=O)Nc2ccc(OCCOCCOC)cc2C(=O)N/N=C/c2ccc(OC)cc2)c1` [Compound 1037, 3-{[(2-Diethylamino-ethyl)-methyl-amino]-methyl}-N-{2-(4-methoxy-benzylidene-hydrazinocarbonyl)-4-[2-(2-methoxy-ethoxy)-ethoxy]-phenyl}-benzamide] was tested. Which pIC50 did it give?
Answer: Its pIC50 is 4.41.

Same assay, conditions: phosphate uptake, oocytes expressing rat NaPi-2b; 300 μM, determined from inhibition curve

Question: How did the inhibition at 300 µM turn out when `COCCOc1cc(NC(=O)c2cccc(CSCC(O)CO)c2)c(C(=O)N/N=C/c2ccc(C)cc2)cc1OCCOC` (stereo not shown) [Compound 1014, N-[4,5-Bis-(2-methoxy-ethoxy)-2-(4-methyl-benzylidene-hydrazinocarbonyl)-phenyl]-3-(2,3-dihydroxy-propylsulfanylmethyl)-benzamide] was run?
Answer: Its inhibition at 300 µM is 55.2%.

Question: `CCN(CC)CCN(C)Cc1cccc(C(=O)Nc2cc(OCCOC)c(OCCOC)cc2C(=O)N/N=C/c2ccc(Cl)c(C(F)(F)F)c2)c1` [Compound 1031, N-[2-(4-Chloro-3-trifluoromethyl-benzylidene-hydrazinocarbonyl)-4,5-bis-(2-methoxy-ethoxy)-phenyl]-3-{[(2-diethylamino-ethyl)-methyl-amino]-methyl}-benzamide] was tested. Which inhibition at 300 µM did it give?
Answer: Its inhibition at 300 µM is 58.8%.

Question: With `CCN(CC)CCN(C)Cc1cccc(C(=O)Nc2cc(OCCOC)c(OCCOC)cc2C(=O)N/N=C/c2ccc(OC)cc2)c1` [Compound 1032, 3-{[(2-Diethylamino-ethyl)-methyl-amino]-methyl}-N-[2-(4-methoxy-benzylidene-hydrazinocarbonyl)-4,5-bis-(2-methoxy-ethoxy)-phenyl]-benzamide] as the compound, how does the inhibition at 300 µM read?
Answer: The inhibition at 300 µM was 40%.
